Experimental data: patent publication US9108930B2, “N1- and N2-carbamoyl-1,2,3-triazole serine hydrolase inhibitors and methods” (The Scripps Research Institute, priority 2011, dated 2015)
pIC50: −log10 of the molar value.

Experiments:
APEH [1] = biological target: T1, APEH (Mus musculus, UniProt Q8R146); assay: In situ inhibition in cultured mouse T-cells, gel-based competitive ABPP; format: cell-based; settings: 4 h at 37° C.; read-out: potency of APEH inactivation in cultured T-cells
T1 sequence (Q8R146 1-732): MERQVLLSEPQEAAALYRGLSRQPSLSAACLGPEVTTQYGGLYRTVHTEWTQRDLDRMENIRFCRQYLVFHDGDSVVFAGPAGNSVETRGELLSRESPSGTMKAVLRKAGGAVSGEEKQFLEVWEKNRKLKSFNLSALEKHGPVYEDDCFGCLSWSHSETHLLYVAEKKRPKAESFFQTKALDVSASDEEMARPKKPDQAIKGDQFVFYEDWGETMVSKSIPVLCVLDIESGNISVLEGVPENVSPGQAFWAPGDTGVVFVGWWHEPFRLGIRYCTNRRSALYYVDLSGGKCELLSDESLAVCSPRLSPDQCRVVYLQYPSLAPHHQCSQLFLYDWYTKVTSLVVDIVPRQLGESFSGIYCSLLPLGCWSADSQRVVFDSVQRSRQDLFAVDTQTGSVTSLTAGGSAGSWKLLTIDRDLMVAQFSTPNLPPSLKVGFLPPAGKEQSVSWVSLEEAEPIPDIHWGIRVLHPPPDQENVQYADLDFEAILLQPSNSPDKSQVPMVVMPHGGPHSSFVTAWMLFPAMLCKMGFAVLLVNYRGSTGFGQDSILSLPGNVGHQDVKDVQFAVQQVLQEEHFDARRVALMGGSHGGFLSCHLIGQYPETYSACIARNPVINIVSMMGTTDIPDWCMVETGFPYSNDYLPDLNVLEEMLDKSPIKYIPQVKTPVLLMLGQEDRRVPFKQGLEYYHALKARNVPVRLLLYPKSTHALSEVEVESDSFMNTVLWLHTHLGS

APEH [2] = biological target: T1, APEH; assay: In vivo APEH inhibition, gel-based competitive ABPP of brain and heart; settings: i.p., 4 h; doses 0.2-1.6 mg/kg
Description: The potency and selectivity of 1,2,3-triazole ureas in vivo also was investigated. Mice were treated with the APEH inhibitor AA74-1 at various doses (0.2-1.6 mg/kg; PEG300 or 18:1:1 saline/ethanol/emulphor intraperitoneally) and sacrificed after 4 h. Brains and hearts were removed, homogenized, and analyzed by gel-based competitive ABPP. […] Finally, the possibility of extending ABPP-SILAC for the characterization of inhibitor selectivity in vivo was explored by taking advantage of recently described protocols for stable isotope labeling in mammals (SILAM). In this approach, brain tissues from vehicle- and AA74-1-treated mice were separately mixed with equivalent amounts of brain tissue from ‘heavy’ amino acid-fed mice, and the samples were then labeled with FP-biotin, enriched by avidin chromatography, analyzed by LC-MS, and SH activities quantified by measuring the ratio-of-ratios for observed peptide signals. […] The ratio-of-ratio signals for APEH indicated greater than 90% inhibition of this enzyme in AA74-1-treated animals (FIG. 5b, top), consistent with average spectral count values (14 and 1 spectral counts for APEH in vehicle-treated versus AA74-1-treated mice, respectively; FIG. 5b, bottom). […] ACHE, an enzyme that is targeted by other reported NHU inhibitors, was not inhibited by AA74-1 in either mouse brain (FIG. 5b) or transfected cell (FIG. 16) proteomes. […]

[3] = system: serine hydrolases (SHs) in mouse T-cell proteomes; assay: Gel-based competitive ABPP, mouse T-cell proteomes in vitro, SH reactivity profile; format: biochemical; settings: 100 nM, 30 minutes at 37° C.
ABHD6 [4] = biological target: T2, ABHD6 (Mus musculus, UniProt Q8R2Y0); assay: In situ inhibition in Neuro2A cells, competitive ABPP; format: cell-based; settings: 4 hours, same dose as used for DAGLB by KT109 and KT172
T2 sequence (Q8R2Y0 1-336): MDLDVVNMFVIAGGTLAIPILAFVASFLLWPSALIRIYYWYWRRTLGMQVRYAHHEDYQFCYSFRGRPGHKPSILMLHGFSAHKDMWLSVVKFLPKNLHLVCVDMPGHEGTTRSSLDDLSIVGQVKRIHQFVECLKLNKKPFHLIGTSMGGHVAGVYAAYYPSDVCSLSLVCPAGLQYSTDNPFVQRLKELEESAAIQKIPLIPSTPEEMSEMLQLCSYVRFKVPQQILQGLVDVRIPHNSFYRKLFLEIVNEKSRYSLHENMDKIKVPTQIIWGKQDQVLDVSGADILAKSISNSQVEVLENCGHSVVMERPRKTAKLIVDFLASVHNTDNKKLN
Description: For gel-based competitive ABPP studies, proteomes from cells treated in situ with inhibitor for 4 h at 37° C. at the indicated concentrations (n=3) were labeled with HT-01 (1 μM) for 30 min at 37° C. After quenching, SDS-PAGE, and in-gel visualization, the percentage of enzyme activity remaining was determined by measuring the integrated optical intensity of the bands using IMAGER® software. For LC-MS substrate assays, the percentage of enzyme activity remaining was determined by comparing the specific activity (amount of 2-AG formed per min per mg of proteome) of inhibitor with DMSO-treated samples. The IC50 values were determined from a dose-response curve generated using GraphPad PRISM® software.

ABHD6 [5] = biological target: T2, ABHD6; assay: ABPP-MudPIT of peritoneal macrophages from treated mice; set-up: from tissue; host or cells: thioglycolate-elicited peritoneal macrophages of mice; settings: in vivo

SMILES: CC(C)CC(O)(CC(C)C)c1cnn(C(=O)N2CCCC2)n1 [AA74-1]
- pIC50 (APEH [1]): 9.77 to 9.85
- dose (as low as) giving complete inhibition of APEH in brain and heart (APEH [2]): 0.4 mg/kg
- cross-reactivity with other SHs [3]: not interacting with other SHs

SMILES: COc1ccc(-c2ccc(-c3cn(C(=O)N4CCCCC4c4ccccc4)nn3)cc2)cc1 (centres unmarked) [KT195]
- inactivation of ABHD6 in Neuro2A cells (ABHD6 [4]): completely inactivating ABHD6
- ABHD6 inhibition by spectral counting (ABHD6 [5]): complete inhibition of ABHD6
